Laboratory results reported in ChEMBL document CHEMBL1201862, “PubChem BioAssay data set” (2004).
Activity calls are given as the source filed them.

Legend:
[1] = target: Photoreceptor-specific nuclear receptor (Homo sapiens, UniProt Q9Y5X4); type: functional, cell-based;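 note: CHO-S cells with Gal4-NCOR and VP16-NR2E3 two-hybrid luciferase reporter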
[2] = target: T1, Microphthalmia-associated transcription factor (Homo sapiens, UniProt O75030); assay: TRPM1 promoter luciferase signal decrease, dose response, MITF inhibitor project, cell-based, SK-MEL-5, cherry-picked, set 3 (AID 493073); type: functional
T1 sequence (O75030 whole entry): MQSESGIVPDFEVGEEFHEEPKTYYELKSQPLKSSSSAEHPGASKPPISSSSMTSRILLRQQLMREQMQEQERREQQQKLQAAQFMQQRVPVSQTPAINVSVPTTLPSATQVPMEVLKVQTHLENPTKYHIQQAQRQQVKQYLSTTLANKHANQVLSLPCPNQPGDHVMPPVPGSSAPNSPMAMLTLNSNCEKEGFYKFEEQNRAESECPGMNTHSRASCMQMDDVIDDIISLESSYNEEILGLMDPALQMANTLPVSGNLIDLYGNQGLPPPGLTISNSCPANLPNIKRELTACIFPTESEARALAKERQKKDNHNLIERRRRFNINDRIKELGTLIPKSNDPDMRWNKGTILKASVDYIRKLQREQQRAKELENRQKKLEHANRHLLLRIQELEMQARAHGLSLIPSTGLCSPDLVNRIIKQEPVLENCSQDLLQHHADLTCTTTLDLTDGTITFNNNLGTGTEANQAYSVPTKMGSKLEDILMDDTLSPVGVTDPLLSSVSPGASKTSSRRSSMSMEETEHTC

[3] = LGR2 antagonists, dose response, cell-based, HEK293, CRE-luciferase reporter, cherry pick, set 2 (AID 743343); type: functional;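 note: transfected cells were stimulated with diluted bursicon conditioned medium after compound addition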
[4] = A549 cell cytotoxicity, dose response, cytotoxicity control, plate reader, cherry-pick, antagonist series (AID 743412); type: functional, cell-based
[5] = inhibitors of firefly luciferase expression or activity, dose response, H4 neuroglioma cells, luminescence (AID 1990); type: functional, cell-based
[6] = target: T2, Heat shock factor protein 1 (Mus musculus, UniProt P38532); assay: inhibition of MG132-induced HSE-luciferase signal, confirmation, cell-based, NIH3T3, luminescence, dose retest (AID 2382); type: functional;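 note: NIH3T3 fibroblasts with HSF1-driven luciferase reporter stressed by proteasome inhibitor MG132; luminescence from HSF1-driven luciferase expression after 8 hours of MG132 stress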
T2 sequence (P38532 whole entry): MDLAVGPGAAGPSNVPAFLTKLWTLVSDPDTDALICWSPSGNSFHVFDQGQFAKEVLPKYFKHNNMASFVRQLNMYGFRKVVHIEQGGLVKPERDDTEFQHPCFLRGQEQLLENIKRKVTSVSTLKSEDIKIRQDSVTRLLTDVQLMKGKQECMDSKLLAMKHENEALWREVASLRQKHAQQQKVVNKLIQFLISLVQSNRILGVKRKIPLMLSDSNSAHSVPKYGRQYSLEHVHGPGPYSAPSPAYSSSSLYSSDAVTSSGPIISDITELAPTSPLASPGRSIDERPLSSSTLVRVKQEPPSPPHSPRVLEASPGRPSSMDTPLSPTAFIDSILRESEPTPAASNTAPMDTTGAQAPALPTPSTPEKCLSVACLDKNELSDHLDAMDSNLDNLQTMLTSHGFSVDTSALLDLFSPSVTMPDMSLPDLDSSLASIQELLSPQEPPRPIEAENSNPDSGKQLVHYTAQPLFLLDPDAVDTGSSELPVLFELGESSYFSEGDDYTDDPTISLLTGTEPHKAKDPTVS

[7] = MC4R antagonists, dose response, counter-screen for LGR2 antagonist project, cell-based, plate reader, cherry pick (AID 743444); type: functional;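 note: transfected HEK 293 cells stimulated with alpha-MSH peptide; potency of inhibitors of the alpha-MSH evoked signal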
[8] = target: NAD-dependent protein deacylase sirtuin-5, mitochondrial (Homo sapiens, UniProt Q9NXA8); assay: SIRT5 desuccinylase inhibitors, dose response, biochemical, fluorescence imaging, cherry-pick, set 5 (AID 720591);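 note: desuccinylation of succinyl peptide AMC substrate read as fluorescence after trypsin release; potency of inhibitors that lower fluorescence and may act on trypsin instead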
NAD-dependent protein deacylase sirtuin-5, mitochondrial, sequence (Q9NXA8 whole entry): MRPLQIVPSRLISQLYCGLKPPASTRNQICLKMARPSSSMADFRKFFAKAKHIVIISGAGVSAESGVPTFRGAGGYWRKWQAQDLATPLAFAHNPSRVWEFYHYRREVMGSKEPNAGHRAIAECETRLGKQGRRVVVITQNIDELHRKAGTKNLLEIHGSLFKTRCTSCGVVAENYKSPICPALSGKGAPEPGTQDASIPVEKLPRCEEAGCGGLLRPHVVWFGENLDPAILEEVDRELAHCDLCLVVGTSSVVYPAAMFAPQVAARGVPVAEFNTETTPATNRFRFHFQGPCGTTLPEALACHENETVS

[9] = target: T3, Replicative DNA helicase DnaB (Mycobacterium tuberculosis, UniProt P9WMR3); assay: DnaB intein splicing inhibitors, dose response, biochemical, cell-free fluorescence (AID 449749); type: functional
T3 sequence (P9WMR3 whole entry): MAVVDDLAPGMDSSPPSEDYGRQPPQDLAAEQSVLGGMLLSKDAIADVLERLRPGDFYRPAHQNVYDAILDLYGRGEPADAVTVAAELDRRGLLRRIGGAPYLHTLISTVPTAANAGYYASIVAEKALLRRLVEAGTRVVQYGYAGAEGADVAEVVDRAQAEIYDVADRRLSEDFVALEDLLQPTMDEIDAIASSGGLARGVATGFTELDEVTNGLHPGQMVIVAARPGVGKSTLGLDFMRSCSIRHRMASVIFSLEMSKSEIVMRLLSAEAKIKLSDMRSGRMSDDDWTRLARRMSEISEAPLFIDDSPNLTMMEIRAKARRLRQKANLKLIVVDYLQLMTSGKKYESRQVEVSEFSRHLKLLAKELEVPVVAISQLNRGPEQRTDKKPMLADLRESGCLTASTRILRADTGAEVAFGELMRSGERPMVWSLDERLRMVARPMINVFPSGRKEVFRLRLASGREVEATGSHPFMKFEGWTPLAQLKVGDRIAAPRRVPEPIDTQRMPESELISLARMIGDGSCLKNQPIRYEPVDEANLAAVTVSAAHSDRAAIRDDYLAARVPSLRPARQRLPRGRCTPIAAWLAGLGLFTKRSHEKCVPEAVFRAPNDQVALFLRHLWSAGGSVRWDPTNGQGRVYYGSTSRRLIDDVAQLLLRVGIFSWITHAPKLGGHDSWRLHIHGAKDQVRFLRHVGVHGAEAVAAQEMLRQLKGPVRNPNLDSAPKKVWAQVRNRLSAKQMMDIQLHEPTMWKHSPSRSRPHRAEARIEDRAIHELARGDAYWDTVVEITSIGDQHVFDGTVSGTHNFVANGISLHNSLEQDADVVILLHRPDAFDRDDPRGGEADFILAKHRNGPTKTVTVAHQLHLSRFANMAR

[10] = target: T4, Leucine aminopeptidase (Plasmodium falciparum 3D7, UniProt Q8IL11); assay: P. falciparum M17LAP inhibitors, primary screen, biochemical, fluorogenic H-Leu-NHMec substrate, 1536-well (AID 1619); type: functional
T4 sequence (Q8IL11 whole entry): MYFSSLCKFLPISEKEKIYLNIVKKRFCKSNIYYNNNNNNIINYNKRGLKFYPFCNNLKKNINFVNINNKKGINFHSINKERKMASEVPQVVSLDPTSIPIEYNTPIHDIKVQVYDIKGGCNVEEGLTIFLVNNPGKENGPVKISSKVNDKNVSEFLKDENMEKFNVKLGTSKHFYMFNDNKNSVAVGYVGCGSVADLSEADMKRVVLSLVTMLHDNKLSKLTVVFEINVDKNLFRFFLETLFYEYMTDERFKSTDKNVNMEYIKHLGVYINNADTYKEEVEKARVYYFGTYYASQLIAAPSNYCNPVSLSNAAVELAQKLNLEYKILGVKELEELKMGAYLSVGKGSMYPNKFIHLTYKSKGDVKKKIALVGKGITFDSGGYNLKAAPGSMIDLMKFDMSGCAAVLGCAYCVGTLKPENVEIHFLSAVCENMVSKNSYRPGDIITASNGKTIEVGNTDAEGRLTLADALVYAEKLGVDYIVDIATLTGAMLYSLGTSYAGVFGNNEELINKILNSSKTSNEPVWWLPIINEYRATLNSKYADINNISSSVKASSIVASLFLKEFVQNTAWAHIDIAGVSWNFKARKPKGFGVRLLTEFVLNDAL

[11] = target: T5, Protein RecA (Mycobacterium tuberculosis, UniProt P9WHJ3); assay: Fluorescence Cell-Free Homogeneous Dose Retest to Identify Inhibitors of RecA-Intein Splicing Activity. [Related pubchem assays (depositor defined):AID2097, AID2223, AID489010, AID492950]; type: functional
T5 sequence (P9WHJ3 whole entry): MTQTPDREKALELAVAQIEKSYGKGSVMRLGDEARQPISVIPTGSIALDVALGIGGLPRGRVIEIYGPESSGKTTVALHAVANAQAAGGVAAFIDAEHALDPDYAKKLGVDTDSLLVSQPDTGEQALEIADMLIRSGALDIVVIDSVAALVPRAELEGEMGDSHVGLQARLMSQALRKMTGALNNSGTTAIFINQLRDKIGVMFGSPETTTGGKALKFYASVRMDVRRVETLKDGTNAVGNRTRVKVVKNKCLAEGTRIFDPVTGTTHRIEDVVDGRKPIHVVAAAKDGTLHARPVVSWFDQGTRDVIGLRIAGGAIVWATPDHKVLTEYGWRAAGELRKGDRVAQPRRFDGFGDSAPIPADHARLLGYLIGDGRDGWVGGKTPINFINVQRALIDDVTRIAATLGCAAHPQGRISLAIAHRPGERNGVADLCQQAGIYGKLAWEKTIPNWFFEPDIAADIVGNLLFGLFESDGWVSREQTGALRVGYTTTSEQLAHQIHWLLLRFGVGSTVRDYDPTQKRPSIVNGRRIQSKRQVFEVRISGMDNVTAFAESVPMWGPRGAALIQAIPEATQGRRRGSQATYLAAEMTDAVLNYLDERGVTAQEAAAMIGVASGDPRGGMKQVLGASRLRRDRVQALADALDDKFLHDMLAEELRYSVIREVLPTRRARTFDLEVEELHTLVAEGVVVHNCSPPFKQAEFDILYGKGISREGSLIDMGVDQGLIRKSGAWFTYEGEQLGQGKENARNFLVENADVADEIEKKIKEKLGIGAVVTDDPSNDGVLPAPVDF

[12] = target: Disintegrin and metalloproteinase domain-containing protein 17 (Homo sapiens, UniProt P78536); assay: ADAM17 protease inhibitors, dose response, counter-screen for ADAM10 exosite inhibitor project, biochemical, quenched FRET substrate (AID 743253)
Disintegrin and metalloproteinase domain-containing protein 17, sequence (P78536 whole entry, the tested form may be a part): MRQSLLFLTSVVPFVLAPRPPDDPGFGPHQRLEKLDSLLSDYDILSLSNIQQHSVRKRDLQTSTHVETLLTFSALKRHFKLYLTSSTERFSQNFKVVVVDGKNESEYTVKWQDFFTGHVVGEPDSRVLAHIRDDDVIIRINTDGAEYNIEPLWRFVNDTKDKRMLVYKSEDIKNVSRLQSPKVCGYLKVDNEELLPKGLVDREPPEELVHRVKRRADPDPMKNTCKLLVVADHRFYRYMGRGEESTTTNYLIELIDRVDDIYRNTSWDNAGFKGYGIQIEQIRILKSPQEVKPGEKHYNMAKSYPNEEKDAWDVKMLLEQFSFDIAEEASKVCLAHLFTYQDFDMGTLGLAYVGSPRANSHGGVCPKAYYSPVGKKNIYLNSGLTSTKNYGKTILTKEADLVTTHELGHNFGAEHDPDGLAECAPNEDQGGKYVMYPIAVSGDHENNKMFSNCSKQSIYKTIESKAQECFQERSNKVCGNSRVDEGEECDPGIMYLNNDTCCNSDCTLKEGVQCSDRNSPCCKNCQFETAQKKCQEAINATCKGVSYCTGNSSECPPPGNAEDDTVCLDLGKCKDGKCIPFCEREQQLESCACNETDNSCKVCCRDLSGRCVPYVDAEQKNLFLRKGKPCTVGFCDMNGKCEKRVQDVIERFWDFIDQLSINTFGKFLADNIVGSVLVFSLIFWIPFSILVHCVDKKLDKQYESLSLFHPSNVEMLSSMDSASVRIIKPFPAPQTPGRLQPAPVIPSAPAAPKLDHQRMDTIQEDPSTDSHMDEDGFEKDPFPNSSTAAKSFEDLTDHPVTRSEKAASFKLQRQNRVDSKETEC

[13] = ADAM10 inhibitors, peptide cleavage, dose response, biochemical, QFRET (AID 743254);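 note: ADAM10 enzyme with the DM2 quenched FRET peptide as substrate; EDANS fluorescence gain as the protease cuts the substrate; inhibitor potency against ADAM10 proteolytic activity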
[14] = M. tuberculosis H37Rv growth inhibitors, H37Rv strain (AID 1626); type: functional

Photoreceptor-specific nuclear receptor, sequence (Q9Y5X4 whole entry, the tested form may be a part): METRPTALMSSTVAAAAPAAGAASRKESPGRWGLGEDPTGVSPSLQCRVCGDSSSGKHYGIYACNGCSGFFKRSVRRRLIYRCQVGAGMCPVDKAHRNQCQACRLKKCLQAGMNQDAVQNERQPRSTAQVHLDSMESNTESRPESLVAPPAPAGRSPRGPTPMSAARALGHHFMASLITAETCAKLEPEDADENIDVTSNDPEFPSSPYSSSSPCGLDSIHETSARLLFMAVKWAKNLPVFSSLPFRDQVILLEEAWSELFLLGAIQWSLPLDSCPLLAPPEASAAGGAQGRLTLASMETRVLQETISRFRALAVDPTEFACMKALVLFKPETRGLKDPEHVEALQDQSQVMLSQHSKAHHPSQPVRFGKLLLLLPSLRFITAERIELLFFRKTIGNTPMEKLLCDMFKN

Cc1cc(C(=O)CSc2nnc3ccccn23)c(C)n1-c1ccccc1
IC50 [1]: 14.4 µM (inactive) | AC50 [2]: 2.08 µM (active) | AC50 [3]: 1.06 µM (active) | AC50 [4]: > 52 µM (inactive) | EC50 [5]: 0.844 µM (active) | EC50 [6]: < 0.16 µM (active) | AC50 [7]: 1.39 µM (active)

CC(=O)N1c2ccc(S(=O)(=O)NCCC(=O)NC3CCC(C)CC3)cc2CC1C (configuration not stated)
AC50 [8]: > 30 µM (inactive)

COc1ccc(CCCNC(=O)C2CCC(=O)N(Cc3ccc(Cl)cc3)C2)cc1 (configuration not stated)
AC50 [8]: > 30 µM (inactive)

N#CC1=C(N)Oc2[nH]nc(-c3ccc(F)cc3)c2C1c1ccncc1 (configuration not stated)
AC50 [9]: 7.34 µM (active) | IC50 [10]: 94.3 µM (active) | EC50 [11]: 5.79 µM (active)

CC(O)(c1ccccc1)c1nc(-c2cc3ccccc3o2)cs1 (configuration not stated)
IC50 [12]: > 69.5 µM (inactive) | IC50 [13]: 17.2 µM (inactive)

CCCN(CC1CC1)C(=O)COC(=O)c1ccc2c(c1)C(=O)N(c1ccc(OCC)cc1)C2=O
IC50 [14]: > 100 µM (active)

CCc1ccc(NC(=O)CSc2nnc(-c3ccccn3)n2C)cc1
IC50 [14]: > 100 µM (active)

CCOC(=O)c1cc(-c2cc(OC)c(OC)c(OC)c2)nc2c1c(=O)[nH]c(=O)n2Cc1ccccc1
AC50 [8]: > 30 µM (inactive)
